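Dose response: 5 concentrations. Exposure: 48 h. Format: 96-well plates. Endpoint: linear interpolation; highest concentration if not reached. GI50 is the concentration that inhibits growth by half.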 Active and inactive are the calls of the source. Rule as the data show it: active = GI50 up to about 1.1 µM and inactive = higher.

Eight compounds from ChEMBL document CHEMBL1201862, “PubChem BioAssay data set” (2004) can be followed below.

What all share (assay): NCI-60 cell line screen, 48 h
The subject of test [1] is A549.
The test system of test [2] is ACHN.
The test system of test [3] is CAKI-1.
The subject of test [4] is DU-145.
The test system of test [5] is HL-60.
The subject of test [6] is HOP-62.
The test system of test [7] is MCF7.
For test [8], the system named is MDA-N.
The subject of test [9] is NCI/ADR-RES.
Test [10] relates to OVCAR-8.
Test [11] deals with PC-3.
The test system of test [12] is SF-268.
Test [13] has as its system SF-295.
The test system of test [14] is SK-MEL-5.
The test system of test [15] is SN12C.
In test [16] the test system is SNB-19.
The subject of test [17] is SW-620.
For test [18], the system named is TK-10.
In test [19] the test system is UACC-62.
Test [20] has as its system RPMI-8226.

Turning to `CCN(CC)/C(Sc1ccccc1)=C(\C(Cl)=C(Cl)Cl)[N+](=O)[O-]`, the GI50 is 21.7 µM (inactive) in test [1]; 17.1 µM (inactive) in [2]; 13 µM (inactive) in test [3]; 16.9 µM (inactive) in test [4]; 1.81 µM (inactive) in test [5]; 23.5 µM (inactive) in test [6]. For the same compound, the GI50 in test [7] is 14.9 µM (inactive); in [8] it was 16.9 µM (inactive); in [9], 24.9 µM (inactive); in [10] it was 17.2 µM (inactive); in [11], 17.2 µM (inactive); in test [12], 21.4 µM (inactive). Moreover, the GI50 in test [13] was 17.6 µM (inactive); in [14] it was 14.1 µM (inactive); in test [15], 17.9 µM (inactive); in test [16] it was 20.6 µM (inactive); in test [17], 17.9 µM (inactive); in [18], 16.9 µM (inactive). The GI50 in test [19] is 14.6 µM (inactive).

For the compound `Clc1c(Cl)c(Cl)c2c(nnn2C2CCCO2)c1Cl` (stereo not given), the GI50 in [1] was 24.7 µM (inactive); in [3] it was 31.9 µM (inactive); in test [4], 51.5 µM (inactive); in test [5], 5.79 µM (inactive); in test [6], 40.5 µM (inactive); in [7], 33.9 µM (inactive). In addition, the GI50 in test [8] is 27.7 µM (inactive); in test [9], 31.7 µM (inactive); in [10] it was 29.3 µM (inactive); in test [11], 39.2 µM (inactive); in test [12], 29.8 µM (inactive); in test [13] it was 36.9 µM (inactive). Moreover, the GI50 is 40.1 µM (inactive) in test [14], 40.7 µM (inactive) in test [15], 65.3 µM (inactive) in [18] and 44.4 µM (inactive) in [19].

With `CCCCCCCC(=O)O[C@H]1[C@H]2[C@@H](CC1(C)C)C(=O)[C@]13O[C@H]1C(=O)[C@]1(CO1)[C@]23C`, the GI50 in test [1] is 30.6 µM (inactive); in test [2] it was 2 µM (inactive); in test [3], 2.62 µM (inactive); in test [4] it was 14.8 µM (inactive); in test [5] it was 0.124 µM (active); in test [6], 17.5 µM (inactive). Besides, the GI50 in [7] is 3.25 µM (inactive); in test [8], 8.95 µM (inactive); in test [10], 2.48 µM (inactive); in [11] it was 17 µM (inactive); in test [20] it was 0.556 µM (active); in [12], 6.01 µM (inactive). The GI50 in test [13] is 15.8 µM (inactive); in test [14], 4.06 µM (inactive); in test [15], 4.17 µM (inactive); in [16] it was 17.7 µM (inactive); in test [17], 0.706 µM (active); in [18] it was 2.75 µM (inactive). In addition, the GI50 in test [19] is 3.55 µM (inactive).

As for `C=CC(O)C#Cc1cnc(OC)nc1OC` (stereo not given), the GI50 in test [1] is > 100 µM (inactive); in test [2], > 100 µM (inactive); in [3], 35.1 µM (inactive); in [4] it was > 100 µM (inactive); in test [5], 17.2 µM (inactive); in test [6], > 100 µM (inactive). Further, the GI50 in test [7] was 14.5 µM (inactive); in [8], > 100 µM (inactive); in test [9] it was > 100 µM (inactive); in [10], > 100 µM (inactive); in test [11], > 100 µM (inactive); in [12], > 100 µM (inactive). Besides, the GI50 in test [13] was > 100 µM (inactive); in test [14], > 100 µM (inactive); in test [15] it was > 100 µM (inactive); in test [16], > 100 µM (inactive); in [17], 75.9 µM (inactive); in test [18] it was > 100 µM (inactive). In [19], the GI50 was > 100 µM (inactive).

For the compound `CO/N=C(/C)c1cccc(Nc2nc3ccccc3c3[nH]c4ccccc4c23)c1`, the GI50 is 8.75 µM (inactive) in test [1]; 3.57 µM (inactive) in test [2]; 10.5 µM (inactive) in [3]; 12.5 µM (inactive) in test [4]; 12.7 µM (inactive) in test [5]; 9.66 µM (inactive) in test [6]. Further, the GI50 in test [7] was 5.16 µM (inactive); in test [8], 8.3 µM (inactive); in [9], 8.97 µM (inactive); in test [10] it was 6.22 µM (inactive); in [11], 10.4 µM (inactive); in test [12], 12.3 µM (inactive). The GI50 was 3.5 µM (inactive) in test [13]; 5.62 µM (inactive) in test [14]; 11.5 µM (inactive) in test [15]; 12.9 µM (inactive) in test [16]; 10.1 µM (inactive) in [17]; 6.03 µM (inactive) in [19].

For `CC(=O)NNC(=S)N/C=C1/C(=O)C=C(C)OC1=O`, the GI50 in test [1], in test [2], in [3], in test [4], in [5] and in [6] was > 100 µM (inactive) throughout. Further, the GI50 in test [7], in [8], in test [9], in [10], in test [11] and in test [13] was > 100 µM (inactive) each time. Besides, the GI50 in test [14], in test [15], in test [16], in test [17] and in [18] was > 100 µM (inactive) each time.

As to `c1ccc(SCCP(CCP(c2ccccc2)c2ccccc2)c2ccccc2)cc1` (stereo not given), the GI50 in test [1] was 6.17 µM (inactive); in [2] it was 5.02 µM (inactive); in test [3], 7.26 µM (inactive); in [4], 3.41 µM (inactive); in test [5] it was 2.09 µM (inactive); in [6], 8.2 µM (inactive). The GI50 was 14.1 µM (inactive) in test [7]; 7.52 µM (inactive) in test [8]; 34.4 µM (inactive) in [9]; 3.06 µM (inactive) in test [10]; 3.14 µM (inactive) in test [20]; > 25.5 µM (inactive) in test [12]. Further, the GI50 in test [13] is 5.46 µM (inactive); in test [14] it was 14 µM (inactive); in [15] it was 4.09 µM (inactive); in test [16] it was 2.95 µM (inactive); in test [17], 13.3 µM (inactive); in [18], 12.1 µM (inactive).

Consider `CC12CCC(=O)[C@@]1(C)CCCC2=O` (stereo not given in full), for which the GI50 in [1], in test [2], in test [3], in test [4], in test [5] and in test [6] was > 100 µM (inactive) in each case. For the same compound, the GI50 in [7], in test [8], in test [9], in test [10], in test [11] and in test [12] was > 100 µM (inactive) throughout. Moreover, the GI50 was > 100 µM (inactive) in test [13]; > 10 µM (inactive) in test [14]; > 100 µM (inactive) in [15]; > 100 µM (inactive) in test [16]; > 100 µM (inactive) in test [17]; > 100 µM (inactive) in test [18]. Further, the GI50 in test [19] was > 100 µM (inactive).
